Assay results as given in the supplement of paper PMC6045584.
± gives the standard deviation of the averaged measurements.

Legend:
NUTLIN3 = compound: COc1ccc(C2=N[C@@H](c3ccc(Cl)cc3)[C@@H](c3ccc(Cl)cc3)N2C(=O)N2CCNC(=O)C2)c(OC(C)C)c1 [NUTLIN3]; assay: surviving fraction relative to DMSO-only wells; higher = less growth inhibition; conditions: exposure time: 5 days
Summary of the method: (§1)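 Lines were retained only if, across three screens, replicate Pearson r was >0.7 and median Z' was >0.3. Viability was measured as CellTiter-Glo luminescence and reported as surviving fraction relative to the median of DMSO-only wells. Readings followed 10 minutes at room temperature, after log-phase tumour cells seeded at 250–500 per well in 384-well plates had been exposed, from 24 hours after seeding, continuously for five days to inhibitors at 0.5, 1, 5, 10, 50, 100, 500 and 1000 nM.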

DECITABINE = compound: Nc1ncn([C@H]2C[C@H](O)[C@@H](CO)O2)c(=O)n1 [DECITABINE]; assay: as above; conditions: exposure time: 5 days
Summary of the method: as §1

Test System	surviving fraction (NUTLIN3; 0.5 nM)	surviving fraction (NUTLIN3; 1 nM)	surviving fraction (NUTLIN3; 5 nM)	surviving fraction (NUTLIN3; 10 nM)	surviving fraction (NUTLIN3; 50 nM)	surviving fraction (NUTLIN3; 100 nM)	surviving fraction (NUTLIN3; 500 nM)	surviving fraction (NUTLIN3; 1000 nM)	surviving fraction (DECITABINE; 0.5 nM)	surviving fraction (DECITABINE; 1 nM)	surviving fraction (DECITABINE; 5 nM)	surviving fraction (DECITABINE; 10 nM)	surviving fraction (DECITABINE; 50 nM)	surviving fraction (DECITABINE; 100 nM)	surviving fraction (DECITABINE; 500 nM)	surviving fraction (DECITABINE; 1000 nM)
BT20 BREAST	1.1 ± 0.18	1.11 ± 0.14	1.09 ± 0.07	1.01 ± 0.14	1.05 ± 0.24	1.07 ± 0.23	1.15 ± 0.25	1.12 ± 0.18	1.24 ± 0.16	1.14 ± 0.086	1.33 ± 0.072	1.28 ± 0.12	1.46 ± 0.037	1.33 ± 0.073	1.1 ± 0.075	0.844 ± 0.069
U2OS BONE	1.02 ± 0.037	1.05 ± 0.037	1.04 ± 0.039	1.02 ± 0.049	1.04 ± 0.023	1.04 ± 0.028	0.974 ± 0.022	0.897 ± 0.036	1.02 ± 0.043	1.01 ± 0.052	1.04 ± 0.054	1.01 ± 0.021	0.992 ± 0.029	0.902 ± 0.045	0.679 ± 0.055	0.699 ± 0.013
SG31 HEADNECK	1.08 ± 0.067	1.05 ± 0.2	1.06 ± 0.12	0.921 ± 0.035	0.854 ± 0.13	1.11 ± 0.23	0.906 ± 0.038	0.92 ± 0.057	1.27 ± 0.12	1.2 ± 0.059	1.14 ± 0.083	1.13 ± 0.1	1.08 ± 0.04	0.952 ± 0.11	1.01 ± 0.13	0.909 ± 0.095
OS25HAL BONE	0.975 ± 0.014	0.998 ± 0.018	0.979 ± 0.013	0.974 ± 0.03	1.06 ± 0.0081	1.064 ± 0.0045	1.052 ± 0.0056	1.06 ± 0.013	1.01 ± 0.024	0.9963 ± 0.0074	1.08 ± 0.033	1.07 ± 0.011	1.19 ± 0.034	1.22 ± 0.034	1.047 ± 0.01	0.921 ± 0.055
SCC36 HEADNECK	1.07 ± 0.15	1.04 ± 0.087	1.16 ± 0.014	1.04 ± 0.03	1.19 ± 0.069	1.17 ± 0.044	1.04 ± 0.1	1.1 ± 0.051	1.01 ± 0.05	1.01 ± 0.054	1.05 ± 0.15	1.05 ± 0.09	1.04 ± 0.089	0.934 ± 0.067	0.709 ± 0.054	0.648 ± 0.074
SUM44 BREAST	0.96 ± 0.028	0.915 ± 0.056	1.02 ± 0.03	1.04 ± 0.051	1.09 ± 0.055	1.06 ± 0.017	1.07 ± 0.084	0.964 ± 0.063	1.15 ± 0.17	1.1 ± 0.16	1.17 ± 0.23	1.14 ± 0.17	1.31 ± 0.26	1.23 ± 0.15	1.13 ± 0.12	1.15 ± 0.069
SG32 HEADNECK	1.27 ± 0.11	1.14 ± 0.29	1 ± 0.13	1.12 ± 0.095	1.18 ± 0.035	1.31 ± 0.45	0.895 ± 0.29	0.61 ± 0.07	1.25 ± 0.11	1.26 ± 0.16	1.12 ± 0.12	1.16 ± 0.067	1.25 ± 0.36	1.1 ± 0.14	0.908 ± 0.071	0.715 ± 0.064
SUM159 BREAST	1.07 ± 0.059	1.05 ± 0.04	0.982 ± 0.076	0.991 ± 0.041	1.03 ± 0.027	0.998 ± 0.08	0.946 ± 0.17	0.916 ± 0.25	1.1 ± 0.024	1.079 ± 0.0093	1.09 ± 0.023	1.06 ± 0.017	1.05 ± 0.012	1.028 ± 0.004	1.03 ± 0.015	0.9957 ± 0.0076
